Experimental data taken from patent publication US5508180A, “Biocatalytic oxidation using soybean peroxidase” (Enzymol International, Inc., priority 1994, dated 1996).

Molecular target: T1, soybean peroxidase (Glycine max, UniProt O22443)
T1 construct: secreted heme glycoprotein, reported 37 kDa
Assay: Demethylation (oxidation) of methoxybenzenes by soybean peroxidase, absorbance of quinone products
Format: biochemical
Settings: for dA per minute (289 nm) / dA per minute (286 nm) / dA per minute (250 nm) / dA per minute (310 nm): pH 2
Description: 0.1 ml soybean peroxidase (120 purpurogallin units/ml) stock solution was added to 3 ml veratryl alcohol solution (1 g veratryl alcohol in 750 ml water) and vortexed in a test tube. 20 μl peroxide stock solution was added, mixed and the solution poured into a 1 cm path, 4 ml quartz cuvette. Using a Shimadzu UV-160 double beam recording spectophotometer, the change in absorbance of the sample compared to a reference cuvette containing 3 ml veratryl alcohol solution only was monitored every minute by scanning wavelengths from 500 to 200 nm. The peak wavelength of 308 nm was identified as veratryl aldehyde and was used for further monitoring. The kinetics of the reaction were determined from the linear portion of the increase in absorbance.
Using assay methods described in Example 15, three methoxybenzenes were tested for oxidation by soybean peroxidase (SBP). These compounds were: 1,4-Dimethoxybenzene (DMB), 1,2,3-Trimethoxybenzene (TMB) and 1,3,5-Trimethoxybenzene (TMB). Stock solutions were prepared by heating 1 g (0.5g 1,3,5-TMB) in 750 ml water to 60 deg C on a stirring hot plate, allowing the solution to cool to room temperature and adjusting the pH to 2 with HCl. Assays were performed as described in Example 1. Initially, a scan of wavelengths from 500 to 200 nm every minute was done during each substrate oxidation to find suitable wavelengths to monitor for the corresponding quinone products.
For example, a comparison of the rates of oxidation of 1,4-dimethoxybenzene at pH 2 where the pH was adjusted with HCl in one case and with HNO3 in a second case is shown in Table 11.

T1 sequence (O22443 27-332): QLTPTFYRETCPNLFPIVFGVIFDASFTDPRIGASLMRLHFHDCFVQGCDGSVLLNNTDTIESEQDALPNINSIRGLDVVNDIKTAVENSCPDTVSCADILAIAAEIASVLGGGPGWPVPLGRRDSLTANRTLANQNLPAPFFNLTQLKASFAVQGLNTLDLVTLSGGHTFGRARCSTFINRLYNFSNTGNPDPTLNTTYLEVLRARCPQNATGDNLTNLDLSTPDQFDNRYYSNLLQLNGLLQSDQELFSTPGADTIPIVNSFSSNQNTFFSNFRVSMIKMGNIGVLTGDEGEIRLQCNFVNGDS

COc1cccc(OC)c1OC [1,2,3-TMB, 1,2,3-Trimethoxybenzene]
dA per minute (289 nm) (25 °C): 0.0147 | dA per minute (289 nm) (35 °C): 0.0272 | dA per minute (289 nm) (45 °C): 0.0893 | dA per minute (289 nm) (55 °C): 1.1161 | dA per minute (289 nm) (65 °C): 0.0301 | dA per minute (289 nm) (75 °C): 0.0142

COc1cc(OC)cc(OC)c1 [1,3,5-TMB, 1,3,5-Trimethoxybenzene]
dA per minute (286 nm) (35 °C): 0.0282 | dA per minute (286 nm) (45 °C): 0.474 | dA per minute (286 nm) (55 °C): 0.097 | dA per minute (286 nm) (65 °C): 0.1724 | dA per minute (286 nm) (75 °C): 0.0262

COc1ccc(OC)cc1 [1,4-DMB, 1,4-Dimethoxybenzene]
dA per minute (250 nm) (25 °C): 1.0134 | dA per minute (310 nm) (25 °C): 0.3566 | dA per minute (250 nm) (35 °C): 1.1306 | dA per minute (310 nm) (35 °C): 0.3942 | dA per minute (250 nm) (45 °C): 1.817 | dA per minute (310 nm) (45 °C): 0.745 | dA per minute (250 nm) (55 °C): 2.73 | dA per minute (310 nm) (55 °C): 1.088 | dA per minute (250 nm) (65 °C): 2.99 | dA per minute (310 nm) (65 °C): 0.437 | dA per minute (250 nm) (75 °C): 0.883 | dA per minute (310 nm) (75 °C): 0.129 | dA per minute (250 nm) (85 °C): 0.0619 | dA per minute (310 nm) (85 °C): 0.0237 | dA per minute (250 nm) (95 °C): 0.0777 | dA per minute (310 nm) (95 °C): 0.0296 | dA 250 nm per min (pH 2 adjusted with HCl): 1.275 | dA 310 nm per min (pH 2 adjusted with HCl): 0.3273 | dA 250 nm per min (pH 2 adjusted with HNO3): 0.7202 | dA 310 nm per min (pH 2 adjusted with HNO3): 0.2934
